# “And” between values parts separate entries of the source, which are not always exact repeats. Equal entries are not always repeated. Marks after values point to notes of the source that are not given here.
# How the values were obtained:
# [1] = tested on: DLD-1 cells; assay: Antibiotics' uptake by the cells, LC-MS/MS; settings: for Concentration of CFT, Lysate / Concentration of CFT, Supernatant: CFT 100 µg/ml alone or + 5-FU 16 µM
# Procedure: (§1) This step was repeated three times and cell homogenate were vortexed at high-speed prior extraction. 40 µl from each supernatant and cell suspension were combined with 200 µl of internal standard working solution prepared in ice-cold methanol. Samples were then centrifuged and 100 µl of the supernatant were diluted with 400 µl water in glass vials prior analysis with LC-/MS/MS.
# [2] = tested on: HCT-116 cells; assay: Antibiotics' uptake by the cells, LC-MS/MS; settings: for Concentration of CFT, Lysate / Concentration of CFT, Supernatant: CFT 100 µg/ml alone or + 5-FU 8 µM
# Procedure: as §1
# [3] = tested on: HCT-116 cells; assay: Caspase-3/7 activity assay; type: cell-based, human; settings: combined with 5-FU 8 µM, 48 and 72h, CFT 100 µg/ml, CFP 50 µg/ml
# Procedure: (§2) Caspase-3/7 activity was measured 48 h and 72 h post-treatment according to the manufacturer's protocol (Caspase-Glo-3/7 Assay, Promega Corp, Madison, WI, USA). Briefly, equal volume from treated cells and caspase-3/7 mixture were incubated at room temperature for 3 h and the luminescence was measured by a microplate reader.
# [4] = tested on: DLD-1 cells; assay: Cell cycle distribution, propidium iodide staining; type: cell-based, human; settings: for accumulation of dead cells in the pre-G1 phase vs. control: CFT alone
# Procedure: Propidium iodide (PI) staining was used to evaluate the effect of the different treatments on the cell cycle. […] 48 h and 72 h post-treatment, collected cells were fixed with ice-cold ethanol (70%) and stored at - 20 °C for at least 2 h. Fixed cells, which were washed with PBS and incubated at 37 °C for 1 h with 50 µl RNase (1 mg/ml) (Sigma Aldrich, Germany), were stained for 15 minutes with PI (Molecular Probes, Eugene, Oregon, USA). Cell cycle was monitored using BD FACSDiva™ and the percentage of cells in the different phases of the cell cycle (pre-Gi, G0/G1, S, and G2/M) phases was determined using BD FACSDiva™ Software.
# Propidium iodide (PI) staining was used to evaluate the effect of the different treatments (Ceftazidime (100 µg/ml) or 5-Fluorouracil (16 µM)) on the cell cycle profile of DLD-1 cells. Briefly, DLD-1 cells were plated at 5^∗104/ml and treated for 48 h and 72 h. Collected cells were fixed with ice-cold ethanol (70%) and stored at -20°C for at least 2 h. Fixed cells, which were washed with PBS and incubated at 37°C for 1 h with 50 µl RNase (1 mg/ml) (Sigma Aldrich, Germany), were stained for 15 minutes with PI (Molecular Probes, Eugene, Oregon, USA). Cell cycle was monitored using BD FACSDiva™ and the percentage of cells in the different phases of the cell cycle (pre-Gi, G0/G1, S, and G2/M) phases was determined using BD FACSDiva™ Software.
# [5] = tested on: Caco-2 cells; assay: MTT metabolic activity assay; type: cell-based, human; settings: 24 h post-treatment, 5-Fluorouracil 4µM
# Procedure: (§3) Cells were plated at 2^∗104cells/ml in 96-well plates and incubated overnight. The following day, cells were treated in triplicate with Ceftazdime or 5-fluorouracil for 24-48 h, depending on the cell line used. Metabolic activity of the cells was studied using the MTT assay that measures the ability of metabolically active cells to convert tetrazolium salt into a blue formazan product, the absorbance of which is recorded at 540 nm by an ELISA reader (Bio-Rad iMark Microplate Reader).
# [6] = tested on: DLD-1 cells; assay: Caspase-3/7 activity assay; type: cell-based, human; settings: CFT 100 µg/ml alone, vs. control untreated cells
# Procedure: as §2
# DLD-1 cells were treated with CFT (100 µg/ml) or 5-Fluorouracil (16 µM). Caspase-3/7 activity was measured 48 h and 72 h post-treatment according to the manufacturer's protocol (Caspase-Glo-3/7 Assay, Promega Corp, Madison, WI, USA). Briefly, equal volume from treated cells and caspase 3/7 mixture were incubated at room temperature for 3 h and the luminescence was measured by a microplate reader.
# [7] = tested on: HCT-116 cells; assay: MTT metabolic activity assay; type: cell-based, human; settings: 48 h post-treatment, CFT 100 µg/mL, CFP 50 µg/mL combined with 5-FU
# [8] = tested on: DLD-1 cells; assay: MTT metabolic activity assay; type: cell-based, human
# Procedure: MTT assay was used to assess the proliferation rate of HCT-116 and DLD-1 cells. In this assay the ability of metabolically active cells to convert tetrazolium salt into a blue formazan product is measured. The absorption of the dissolved formazan was quantified at 540 nm by an ELISA reader (Bio-Rad iMark Microplate Reader).
# Cells were plated at 2^∗104cells/ml in 96-well plates and incubated overnight. […] Metabolic activity of the cells was studied using the MTT assay that measures the ability of metabolically active cells to convert tetrazolium salt into a blue formazan product, the absorbance of which is recorded at 540 nm by an ELISA reader (Bio-Rad iMark Microplate Reader).
# [9] = tested on: HCT-116 cells; assay: Cell cycle distribution, propidium iodide staining; type: cell-based, human; settings: CFT 100 µg/mL, CFP 50 µg/mL, 5-FU 8 µM, alone or combined, mean ± SE
# Procedure: Propidium iodide (PI) staining was used to evaluate the effect of the different treatments on the cell cycle. […] Fixed cells, which were washed with PBS and incubated at 37 °C for 1 h with 50 µl RNase (1 mg/ml) (Sigma Aldrich, Germany), were stained for 15 minutes with PI (Molecular Probes, Eugene, Oregon, USA).
# [10] = tested on: RAW 264.7 cells; assay: MTT metabolic activity assay on macrophages; type: cell-based, murine
# Procedure: as §3
# [11] = 48 h, CFT 100 µg/mL, CFP 50 µg/mL, 5-FU 16 µM, alone or combined, mean ± SE
# [12] = 72 h, CFT 100 µg/mL, CFP 50 µg/mL, 5-FU 16 µM, alone or combined, mean ± SE
structure (smiles),measurement,setting,value
"CC(C)(O/N=C(\C(=O)N[C@@H]1C(=O)N2C(C(=O)[O-])=C(C[n+]3ccccc3)CS[C@H]12)c1csc(N)n1)C(=O)O [CFT, (6R,7R)-7-[[(2Z)-2-(2-amino-1,3-thiazol-4-yl)-2-(2-carboxypropan-2-yloxyimino)acetyl]amino]-8-oxo-3-(pyridin-1-ium-1-ylmethyl)-5-thia-1-azabicyclo[4.2.0]oct-2-ene-2-carboxylate]","Concentration of CFT, Lysate",[1]; 2 h,0.024 ± 0.003
same,"Concentration of CFT, Supernatant",[1]; 2 h,100.000 ± 2.970
same,"Concentration of CFT, Lysate",[1]; 4 h,0.026 ± 0.002
same,"Concentration of CFT, Supernatant",[1]; 4 h,97.073 ± 5.728
same,"Concentration of CFT, Lysate",[1]; 6 h,0.033 ± 0.003
same,"Concentration of CFT, Supernatant",[1]; 6 h,91.335 ± 7.637
same,"Concentration of CFT, Lysate",[1]; 8 h,0.032 ± 0.001
same,"Concentration of CFT, Supernatant",[1]; 8 h,98.126 ± 5.940
same,average uptake by the cells,[1]; up to 8h,around 0.02%
same,uptake of CFT,"[1]; up to 8 h, CFT 100 µg/ml",0.019-0.025%
same,"Concentration of CFT, Lysate","[2]; HCT-116 cells, 2 h",0.047 ± 0.003
same,"Concentration of CFT, Supernatant","[2]; HCT-116 cells, 2 h",96.900 ± 3.818
same,"Concentration of CFT, Lysate","[2]; HCT-116 cells, 4 h",0.066 ± 0.012
same,"Concentration of CFT, Supernatant","[2]; HCT-116 cells, 4 h",105.000 ± 4.168
same,"Concentration of CFT, Lysate","[2]; HCT-116 cells, 6 h",0.056 ± 0.001
same,"Concentration of CFT, Supernatant","[2]; HCT-116 cells, 6 h",96.750 ± 8.697
same,"Concentration of CFT, Lysate","[2]; HCT-116 cells, 8 h",0.053 ± 0.010
same,"Concentration of CFT, Supernatant","[2]; HCT-116 cells, 8 h",88.900 ± 8.326
same,uptake of CFT,"[2]; HCT-116 cells, up to 8 h, CFT 100 µg/ml",0.047-0.066%
same,average uptake in HCT-116 cells compared to DLD-1 cells,[2]; up to 8h,2 folds
same,uptake in HCT-116 cells compared to DLD-1 cells,"[2]; up to 8 h, CFT 100 µg/ml",~2.5 fold
same,"effect on 5-FU-induced apoptosis (caspase 3/7, in words)",[3],antagonized 5-FU-induced apoptosis
same,percentage of cells in G0/G1,[4]; [11],52.6 ± 3.3%
same,percentage of cells in Pre G1,[4]; [11],9.3 ± 2.5^(a) %
same,percentage of cells in S,[4]; [11],14.6 ± 3.2%
same,accumulation of dead cells in the pre-G1 phase vs. control,[4]; 48 h,1.9 fold
same,percentage of cells in G0/G1,[4]; [12],38.2 ± 4.3^(a) %
same,percentage of cells in G2/M,[4]; [12],12.0 ± 1.6^(a) %
same,percentage of cells in Pre G1,[4]; [12],40.6 ± 5.2^(a) %
same,percentage of cells in S,[4]; [12],8.4 ± 0.6%
same,accumulation of dead cells in the pre-G1 phase vs. control,[4]; 72h,9.4 fold
same,inhibition of proliferation (metabolic activity),[5],30%
same,increase of the activity of caspase 3/7,[6]; 48 h,20%
same,increase of the activity of caspase 3/7,[6]; 72 h,32.1%
same,effect on 5-FU's effect on metabolic activity (in words),[7],antagonized 5-FU's effect
same,inhibitory effect vs. control untreated cells (metabolic activity),"[8]; 48 h post-treatment, 5-Fluorouracil 16µM",18%
same,metabolic activity (in words),"[8]; CFT alone (100 µg/ml), 72 h post-treatment",significant decrease in the metabolic activity
same,percentage of cells in G2/M,[9]; 48 h,24.4 ± 1.2%
same,percentage of cells in Pre G1,[9]; 48 h,6.4 ± 2.3^(a) %
same,percentage of cells in S,[9]; 48 h,12.8 ± 2.9%
same,percentage of cells in G0/G1,[9]; 72 h,56.9 ± 1.3^(a) %
same,percentage of cells in G2/M,[9]; 72 h,24.3 ± 0.5^(a) %
same,percentage of cells in Pre G1,[9]; 72 h,9.8% and 9.8 ± 0.9^(a) %
same,percentage of cells in S,[9]; 72 h,6.6 ± 1.0%
same,metabolic activity of macrophages (in words),[10],restored to control untreated cells
